Experimental data published in ChEMBL document CHEMBL5352478, “Novel pyridine-containing histone deacetylase inhibitors strongly arrest proliferation, induce apoptosis and modulate miRNAs in cancer cells” (Eur J Med Chem, 2023).

Key:
[1] = target: Histone deacetylase 1 (Homo sapiens, UniProt Q13547)
[2] = target: Histone deacetylase 3 (Homo sapiens, UniProt O15379)
[3] = target: Histone deacetylase 2 (Homo sapiens, UniProt Q92769)
[4] = target: Histone deacetylase 5 (Homo sapiens, UniProt Q9UQL6)
Sequence of Histone deacetylase 5 (Q9UQL6 whole entry): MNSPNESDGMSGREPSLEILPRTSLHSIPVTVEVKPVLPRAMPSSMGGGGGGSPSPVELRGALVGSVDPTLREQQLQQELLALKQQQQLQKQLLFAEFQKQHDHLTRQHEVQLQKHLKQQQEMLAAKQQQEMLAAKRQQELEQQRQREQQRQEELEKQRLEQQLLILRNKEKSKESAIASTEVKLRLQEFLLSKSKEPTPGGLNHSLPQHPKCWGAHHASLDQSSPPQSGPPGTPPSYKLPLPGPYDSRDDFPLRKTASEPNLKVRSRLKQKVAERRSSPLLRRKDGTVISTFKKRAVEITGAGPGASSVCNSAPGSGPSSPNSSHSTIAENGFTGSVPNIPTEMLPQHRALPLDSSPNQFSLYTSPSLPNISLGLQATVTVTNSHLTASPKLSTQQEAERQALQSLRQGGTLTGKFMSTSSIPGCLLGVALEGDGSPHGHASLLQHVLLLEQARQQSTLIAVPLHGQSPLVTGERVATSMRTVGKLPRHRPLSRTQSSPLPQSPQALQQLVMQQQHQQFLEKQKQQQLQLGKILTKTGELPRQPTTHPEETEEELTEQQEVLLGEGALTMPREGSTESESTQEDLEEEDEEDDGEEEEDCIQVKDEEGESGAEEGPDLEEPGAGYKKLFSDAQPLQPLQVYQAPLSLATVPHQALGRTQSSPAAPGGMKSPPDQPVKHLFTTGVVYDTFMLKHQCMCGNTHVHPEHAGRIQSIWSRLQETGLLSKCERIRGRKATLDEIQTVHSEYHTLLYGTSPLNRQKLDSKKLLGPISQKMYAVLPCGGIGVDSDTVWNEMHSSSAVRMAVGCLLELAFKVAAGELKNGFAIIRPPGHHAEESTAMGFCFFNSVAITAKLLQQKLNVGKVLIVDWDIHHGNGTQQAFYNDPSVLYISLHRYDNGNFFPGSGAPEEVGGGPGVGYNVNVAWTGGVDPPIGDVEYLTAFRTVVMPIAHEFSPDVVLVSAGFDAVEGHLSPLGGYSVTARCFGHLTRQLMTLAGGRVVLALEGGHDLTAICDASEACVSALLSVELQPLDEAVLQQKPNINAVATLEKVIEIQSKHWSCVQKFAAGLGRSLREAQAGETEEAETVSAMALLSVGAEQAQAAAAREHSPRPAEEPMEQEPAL

[5] = target: T1, Polyamine deacetylase HDAC10 (Homo sapiens, UniProt Q969S8)
T1 sequence (Q969S8 whole entry): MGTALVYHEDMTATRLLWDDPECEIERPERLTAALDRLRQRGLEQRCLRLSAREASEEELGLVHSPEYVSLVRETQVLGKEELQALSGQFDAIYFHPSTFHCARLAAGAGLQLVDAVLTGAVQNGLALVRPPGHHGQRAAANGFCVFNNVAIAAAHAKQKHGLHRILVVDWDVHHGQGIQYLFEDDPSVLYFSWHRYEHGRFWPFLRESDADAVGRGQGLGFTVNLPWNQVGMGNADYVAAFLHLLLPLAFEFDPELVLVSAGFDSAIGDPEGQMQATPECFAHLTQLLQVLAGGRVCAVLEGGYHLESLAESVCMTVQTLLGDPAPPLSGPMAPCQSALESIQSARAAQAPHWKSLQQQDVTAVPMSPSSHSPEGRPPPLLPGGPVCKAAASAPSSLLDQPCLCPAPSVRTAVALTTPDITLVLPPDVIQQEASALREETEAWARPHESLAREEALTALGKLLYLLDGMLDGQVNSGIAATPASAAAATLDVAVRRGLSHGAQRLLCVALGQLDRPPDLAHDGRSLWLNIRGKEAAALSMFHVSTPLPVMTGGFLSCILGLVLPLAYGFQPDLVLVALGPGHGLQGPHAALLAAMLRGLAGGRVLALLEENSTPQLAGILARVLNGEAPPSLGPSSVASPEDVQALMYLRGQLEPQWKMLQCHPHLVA

[6] = test system: HCT-116; experiment: cells; format: functional, cell-based; details: Homo sapiens, HCT-116, 72 h
[7] = test system: A549; experiment: cells; format: functional, cell-based; details: Homo sapiens, A549, 72 h
[8] = test system: K562; experiment: cells; format: functional, cell-based; details: Homo sapiens, K562, 72 h
[9] = test system: K562; experiment: Potency index, ratio of SAHA IC50 to test compound IC50 for antiproliferative activity against human K562 cell; format: functional
[10] = test system: U-937; experiment: Induction of cell cycle arrest in human U-937 cells assessed as accumulation of cells in pre-G1 phase at 5 uM for 24 hrs by PI staining based flow cytometric analysis; format: functional
[11] = test system: U-937; experiment: Induction of cell cycle arrest in human U-937 cells assessed as accumulation of cells in pre-G1 phase at 1 uM for 48 hrs by PI staining based flow cytometric analysis; format: functional
[12] = test system: U-937; experiment: Induction of cell cycle arrest in human U-937 cells assessed as accumulation of cells in G1 phase at 1 to 5 uM for 48 hrs by PI staining based flow cytometric analysis; format: functional; details: dose 1-5 µM
[13] = test system: OCI-AML-3; experiment: Antiproliferative activity against human OCI-AML-3 cells incubated for 48 hrs; format: functional, cell-based; details: OCI-AML-3, 48 h
[14] = Antiproliferative activity against human IMS-M2 cells incubated for 48 hrs; format: functional, cell-based; details: IMS-M2, 48 h
[15] = test system: OCI-AML2; experiment: Antiproliferative activity against human OCI-AML2 cells incubated for 48 hrs; format: functional, cell-based; details: OCI-AML2, 48 h
[16] = test system: MV4-11; experiment: Antiproliferative activity against human MV4-11 cells incubated for 48 hrs; format: functional, cell-based; details: MV4-11, 48 h
[17] = test system: Kasumi 1; experiment: Antiproliferative activity against human Kasumi 1 cells incubated for 48 hrs; format: functional, cell-based; details: Kasumi 1, 48 h
[18] = test system: U-937; experiment: Antiproliferative activity against human U-937 cells incubated for 48 hrs; format: functional, cell-based; details: U-937, 48 h
[19] = test system: HL-60; experiment: Antiproliferative activity against human HL-60 cells incubated for 48 hrs; format: functional, cell-based; details: HL-60, 48 h
[20] = test system: KARPAS-299; experiment: Antiproliferative activity against human KARPAS-299 cells incubated for 48 hrs; format: functional, cell-based; details: KARPAS-299, 48 h
[21] = test system: NB-4; experiment: Antiproliferative activity against human NB4 cells incubated for 48 hrs; format: functional, cell-based; details: NB-4, 48 h
[22] = target: T2, Histone deacetylase 8 (Homo sapiens, UniProt Q9BY41)
T2 sequence (Q9BY41 whole entry): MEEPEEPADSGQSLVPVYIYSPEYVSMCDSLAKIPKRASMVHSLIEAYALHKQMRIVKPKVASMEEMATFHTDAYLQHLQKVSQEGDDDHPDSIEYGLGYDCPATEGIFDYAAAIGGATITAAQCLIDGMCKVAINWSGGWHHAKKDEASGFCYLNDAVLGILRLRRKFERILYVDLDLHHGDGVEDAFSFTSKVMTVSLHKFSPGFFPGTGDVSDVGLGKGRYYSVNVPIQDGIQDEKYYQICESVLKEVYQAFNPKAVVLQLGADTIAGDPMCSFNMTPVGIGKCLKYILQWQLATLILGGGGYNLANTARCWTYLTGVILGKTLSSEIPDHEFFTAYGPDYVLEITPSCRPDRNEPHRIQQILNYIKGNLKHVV

[23] = target: T3, Histone deacetylase 7 (Homo sapiens, UniProt Q8WUI4)
T3 sequence (Q8WUI4 whole entry): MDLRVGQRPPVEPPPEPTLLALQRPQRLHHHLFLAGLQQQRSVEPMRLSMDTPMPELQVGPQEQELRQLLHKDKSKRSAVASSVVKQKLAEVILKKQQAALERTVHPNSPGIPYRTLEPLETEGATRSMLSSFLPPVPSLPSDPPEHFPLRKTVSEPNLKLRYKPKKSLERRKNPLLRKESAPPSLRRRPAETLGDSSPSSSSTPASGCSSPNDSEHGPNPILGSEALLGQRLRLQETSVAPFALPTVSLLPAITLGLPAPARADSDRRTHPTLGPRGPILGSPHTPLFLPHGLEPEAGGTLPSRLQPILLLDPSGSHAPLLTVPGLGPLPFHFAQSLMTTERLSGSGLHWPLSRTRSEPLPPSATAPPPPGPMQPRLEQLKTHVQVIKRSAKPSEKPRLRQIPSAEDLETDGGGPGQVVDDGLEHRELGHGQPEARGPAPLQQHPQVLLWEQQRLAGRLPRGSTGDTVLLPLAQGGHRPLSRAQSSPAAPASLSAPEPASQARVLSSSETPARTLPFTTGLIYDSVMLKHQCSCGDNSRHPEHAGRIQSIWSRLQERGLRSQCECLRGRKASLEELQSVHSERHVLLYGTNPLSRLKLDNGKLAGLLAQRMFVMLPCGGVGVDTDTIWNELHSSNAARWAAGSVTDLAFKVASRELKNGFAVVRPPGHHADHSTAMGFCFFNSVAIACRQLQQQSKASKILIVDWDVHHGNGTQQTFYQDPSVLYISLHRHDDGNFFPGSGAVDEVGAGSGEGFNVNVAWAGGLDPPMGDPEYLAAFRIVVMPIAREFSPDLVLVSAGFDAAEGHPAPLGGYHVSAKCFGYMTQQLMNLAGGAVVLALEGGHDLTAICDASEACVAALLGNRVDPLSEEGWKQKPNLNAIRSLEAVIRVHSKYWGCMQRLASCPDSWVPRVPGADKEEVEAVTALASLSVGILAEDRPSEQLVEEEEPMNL

[24] = target: T4, Histone deacetylase 9 (Homo sapiens, UniProt Q9UKV0)
T4 sequence (Q9UKV0 whole entry): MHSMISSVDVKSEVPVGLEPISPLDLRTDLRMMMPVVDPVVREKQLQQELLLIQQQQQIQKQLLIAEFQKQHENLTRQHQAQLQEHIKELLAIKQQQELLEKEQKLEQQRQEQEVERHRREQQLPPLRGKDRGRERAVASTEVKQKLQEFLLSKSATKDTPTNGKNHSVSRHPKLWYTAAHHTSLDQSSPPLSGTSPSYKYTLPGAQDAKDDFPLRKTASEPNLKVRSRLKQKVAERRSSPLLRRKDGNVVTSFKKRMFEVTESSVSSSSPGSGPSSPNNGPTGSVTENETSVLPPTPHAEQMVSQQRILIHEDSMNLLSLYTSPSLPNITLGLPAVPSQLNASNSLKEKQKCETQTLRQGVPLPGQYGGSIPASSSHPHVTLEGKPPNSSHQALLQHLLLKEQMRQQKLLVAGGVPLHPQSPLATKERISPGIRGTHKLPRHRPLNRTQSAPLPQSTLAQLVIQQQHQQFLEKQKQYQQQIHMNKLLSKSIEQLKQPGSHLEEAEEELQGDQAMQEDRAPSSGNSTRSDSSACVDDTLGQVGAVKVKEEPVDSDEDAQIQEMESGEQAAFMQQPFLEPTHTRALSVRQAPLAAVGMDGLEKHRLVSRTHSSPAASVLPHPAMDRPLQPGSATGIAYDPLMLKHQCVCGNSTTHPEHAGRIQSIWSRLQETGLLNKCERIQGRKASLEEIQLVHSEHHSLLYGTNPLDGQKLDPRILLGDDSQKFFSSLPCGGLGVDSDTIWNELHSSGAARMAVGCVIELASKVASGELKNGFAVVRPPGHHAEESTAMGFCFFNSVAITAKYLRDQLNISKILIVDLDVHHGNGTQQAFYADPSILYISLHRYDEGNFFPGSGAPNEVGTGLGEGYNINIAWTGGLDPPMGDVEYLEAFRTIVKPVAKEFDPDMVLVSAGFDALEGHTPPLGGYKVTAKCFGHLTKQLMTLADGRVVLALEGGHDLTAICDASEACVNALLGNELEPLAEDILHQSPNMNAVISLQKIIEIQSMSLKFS

[25] = target: T5, Histone deacetylase 11 (Homo sapiens, UniProt Q96DB2)
T5 sequence (Q96DB2 whole entry): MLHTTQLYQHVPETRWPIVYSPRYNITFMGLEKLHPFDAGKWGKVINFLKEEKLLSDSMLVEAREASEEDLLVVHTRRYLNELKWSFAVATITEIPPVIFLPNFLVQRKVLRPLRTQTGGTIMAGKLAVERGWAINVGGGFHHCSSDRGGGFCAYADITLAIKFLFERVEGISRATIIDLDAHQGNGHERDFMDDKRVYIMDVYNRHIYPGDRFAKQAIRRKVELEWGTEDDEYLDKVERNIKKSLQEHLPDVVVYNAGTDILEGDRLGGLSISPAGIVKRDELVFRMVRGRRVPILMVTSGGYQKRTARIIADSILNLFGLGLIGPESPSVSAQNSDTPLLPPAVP

[26] = target: Histone deacetylase 4 (Homo sapiens, UniProt P56524)
Sequence of Histone deacetylase 4 (P56524 whole entry): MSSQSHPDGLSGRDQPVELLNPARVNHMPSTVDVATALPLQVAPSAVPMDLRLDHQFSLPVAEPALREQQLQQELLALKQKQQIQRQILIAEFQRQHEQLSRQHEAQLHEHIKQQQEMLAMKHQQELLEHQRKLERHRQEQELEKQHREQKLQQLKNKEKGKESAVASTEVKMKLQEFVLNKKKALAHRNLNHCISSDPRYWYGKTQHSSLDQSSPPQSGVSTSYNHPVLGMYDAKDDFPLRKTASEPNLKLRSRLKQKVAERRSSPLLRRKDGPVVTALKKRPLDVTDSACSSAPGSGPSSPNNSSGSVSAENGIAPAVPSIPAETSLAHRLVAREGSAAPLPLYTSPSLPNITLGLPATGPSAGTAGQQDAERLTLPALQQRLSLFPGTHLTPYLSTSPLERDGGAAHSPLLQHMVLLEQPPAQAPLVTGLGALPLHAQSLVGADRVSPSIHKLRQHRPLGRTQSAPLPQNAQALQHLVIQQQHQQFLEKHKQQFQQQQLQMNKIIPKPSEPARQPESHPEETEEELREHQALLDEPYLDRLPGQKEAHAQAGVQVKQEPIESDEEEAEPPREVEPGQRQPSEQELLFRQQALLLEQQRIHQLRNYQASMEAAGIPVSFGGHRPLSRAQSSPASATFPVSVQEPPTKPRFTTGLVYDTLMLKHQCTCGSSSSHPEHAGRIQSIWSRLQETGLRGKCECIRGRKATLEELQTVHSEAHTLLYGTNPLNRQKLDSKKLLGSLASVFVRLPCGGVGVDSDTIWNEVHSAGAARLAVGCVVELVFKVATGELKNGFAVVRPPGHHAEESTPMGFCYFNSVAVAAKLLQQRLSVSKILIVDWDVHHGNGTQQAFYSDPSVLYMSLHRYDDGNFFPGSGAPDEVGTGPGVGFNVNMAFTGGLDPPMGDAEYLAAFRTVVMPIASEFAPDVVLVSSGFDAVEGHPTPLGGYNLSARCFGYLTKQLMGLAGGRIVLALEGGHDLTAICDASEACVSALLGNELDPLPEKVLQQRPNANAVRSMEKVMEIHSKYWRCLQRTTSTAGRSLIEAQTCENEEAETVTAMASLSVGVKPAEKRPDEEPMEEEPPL

[27] = target: T2, Histone deacetylase 8; remark: listed apart in the source
[28] = target: T3, Histone deacetylase 7; remark: listed apart in the source
[29] = target: T4, Histone deacetylase 9; remark: listed apart in the source

Sequence of Histone deacetylase 1 (Q13547 whole entry): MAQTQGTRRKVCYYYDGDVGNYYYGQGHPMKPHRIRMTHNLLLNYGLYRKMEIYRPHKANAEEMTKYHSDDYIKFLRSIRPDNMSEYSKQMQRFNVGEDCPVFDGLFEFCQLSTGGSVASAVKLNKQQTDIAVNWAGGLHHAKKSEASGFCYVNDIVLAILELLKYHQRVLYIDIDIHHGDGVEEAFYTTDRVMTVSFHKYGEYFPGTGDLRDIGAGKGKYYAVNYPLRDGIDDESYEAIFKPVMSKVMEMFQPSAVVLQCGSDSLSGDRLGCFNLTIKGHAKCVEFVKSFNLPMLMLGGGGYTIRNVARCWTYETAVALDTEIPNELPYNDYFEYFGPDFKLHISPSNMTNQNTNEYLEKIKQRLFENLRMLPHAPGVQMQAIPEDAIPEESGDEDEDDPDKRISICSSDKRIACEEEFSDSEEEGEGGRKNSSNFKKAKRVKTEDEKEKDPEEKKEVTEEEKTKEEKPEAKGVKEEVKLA
Sequence of Histone deacetylase 2 (Q92769 whole entry): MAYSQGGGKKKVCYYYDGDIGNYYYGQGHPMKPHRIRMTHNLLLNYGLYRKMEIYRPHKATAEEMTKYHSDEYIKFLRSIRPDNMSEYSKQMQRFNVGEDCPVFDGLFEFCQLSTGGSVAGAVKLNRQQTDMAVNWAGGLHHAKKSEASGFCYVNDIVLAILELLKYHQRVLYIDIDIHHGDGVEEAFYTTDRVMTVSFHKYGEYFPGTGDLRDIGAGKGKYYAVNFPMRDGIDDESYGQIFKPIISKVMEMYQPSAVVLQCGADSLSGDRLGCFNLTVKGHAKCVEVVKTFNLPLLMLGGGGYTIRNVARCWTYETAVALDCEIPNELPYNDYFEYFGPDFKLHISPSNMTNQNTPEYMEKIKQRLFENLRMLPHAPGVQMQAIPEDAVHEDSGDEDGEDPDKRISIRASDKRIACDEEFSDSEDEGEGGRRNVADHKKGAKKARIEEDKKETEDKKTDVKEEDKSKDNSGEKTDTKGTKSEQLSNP
Sequence of Histone deacetylase 3 (O15379 whole entry): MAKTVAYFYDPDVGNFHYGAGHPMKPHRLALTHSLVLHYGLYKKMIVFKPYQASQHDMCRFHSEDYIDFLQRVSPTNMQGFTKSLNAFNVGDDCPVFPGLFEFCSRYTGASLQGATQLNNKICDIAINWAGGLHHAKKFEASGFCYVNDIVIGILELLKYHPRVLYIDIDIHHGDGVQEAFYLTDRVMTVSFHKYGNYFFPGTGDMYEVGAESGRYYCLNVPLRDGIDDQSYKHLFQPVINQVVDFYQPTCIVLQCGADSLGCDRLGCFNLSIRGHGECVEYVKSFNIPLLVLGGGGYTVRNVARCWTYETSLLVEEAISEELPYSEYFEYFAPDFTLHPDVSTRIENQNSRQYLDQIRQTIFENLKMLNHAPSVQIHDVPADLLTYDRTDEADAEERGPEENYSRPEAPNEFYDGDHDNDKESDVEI

Row | SMILES | IC50 [1] | IC50 [2] | IC50 [3] | IC50 [5] | IC50 [6] | IC50 [7] | IC50 [8] | Activity [10] | Activity [12] | IC50 [25] | other results
1 | O=C(/C=C/c1ccc(NC(=O)Cc2cccc3ccccc23)cn1)NO | 0.098 µM | 0.039 µM | 0.156 µM | 0.071 µM | 0.07 µM | 0.32 µM | 0.05 µM | 10% | 70% | 3.98 µM | IC50 ([4]; read-out: IC50): 1.35 µM; Ratio IC50 [9]: 10; Activity [11]: 40%; IC50 [13]: 0.529 µM; IC50 [14]: 0.198 µM; IC50 [15]: 0.379 µM; IC50 [16]: 0.059 µM; IC50 [17]: 0.066 µM; IC50 [18]: 0.258 µM; IC50 [19]: 0.276 µM; IC50 [20]: 0.4 µM; IC50 [21]: 0.084 µM; IC50 [22]: 0.047 µM; IC50 [23]: 2.06 µM; IC50 [24]: 2.79 µM
2 | Nc1ccccc1NC(=O)c1ccc(NC(=O)C(Cc2ccccc2)c2ccccc2)cn1 (stereo not given) | 0.353 µM | 0.515 µM | 0.431 µM | 0.32 µM | 0.32 µM | 1.51 µM | 0.32 µM | 10% | 70% | 85.4 µM | IC50 [26]: Not Active; IC50 [4]: Not Active; IC50 [27]: Not Active; IC50 [28]: Not Active; IC50 [29]: Not Active
